Data from ChEMBL document CHEMBL6153132 (J Med Chem, 2025).
Active and inactive are the calls of the source. No cut-off for these calls is given here.

What was measured:
CAL-27 [1] = assay: Induction of DNA damage in human CAL-27 cells assessed as gamma-H2AX accumulation at 0.5 uM in presence of cisplatin by Western blot analysis; type: functional, cell-based
cells [2] = settings: Homo sapiens, Cal27CisR, 72 h
A2780 [3] = assay: cells; settings: Homo sapiens
[4] = Metabolic stability in human liver microsome assessed as intrinsic clearance; type: ADME; settings: microsomes
A2780 [5] = assay: Induction of cell cycle arrest in human A2780 cells assessed as increase in accumulation of cells at subG1 phase 0.5 to 1 uM; type: functional, cell-based; settings: dose 0.5-1 µM
CAL-27 [6] = assay: Anti-apoptotic activity in human CAL-27 cells assessed as increase in survivin expression at 0.5 uM incubated for 48 hrs by Western blot analysis; type: functional, cell-based
[7] = target: T1, Interstitial collagenase (Homo sapiens) (UniProt P03956); assay: Inhibition of MMP1 (unknown origin) at 10 uM relative to control
T1 sequence (whole entry): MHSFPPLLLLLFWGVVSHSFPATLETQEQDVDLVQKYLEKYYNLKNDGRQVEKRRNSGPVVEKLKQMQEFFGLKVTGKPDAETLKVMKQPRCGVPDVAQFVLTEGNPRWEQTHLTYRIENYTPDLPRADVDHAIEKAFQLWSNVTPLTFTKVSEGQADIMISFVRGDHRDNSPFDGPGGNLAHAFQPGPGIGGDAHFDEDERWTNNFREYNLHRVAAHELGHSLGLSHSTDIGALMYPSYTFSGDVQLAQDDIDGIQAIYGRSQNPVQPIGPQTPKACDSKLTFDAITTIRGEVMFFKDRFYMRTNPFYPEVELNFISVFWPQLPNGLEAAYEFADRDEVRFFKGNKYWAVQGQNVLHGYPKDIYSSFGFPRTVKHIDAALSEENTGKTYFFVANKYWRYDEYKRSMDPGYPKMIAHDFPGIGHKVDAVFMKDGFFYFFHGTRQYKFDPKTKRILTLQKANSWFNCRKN

CAL-27 [8] = assay: Anti-apoptotic activity in human CAL-27 cells assessed as increase in BCL-2 expression at 0.5 uM incubated for 48 hrs by Western blot analysis; type: functional, cell-based
[9] = target: Glutaminyl-peptide cyclotransferase (Homo sapiens) (UniProt Q16769); assay: Inhibition of glutaminyl cyclase (unknown origin) at 10 uM relative to control
[10] = Lipophilicity, logD of compound at pH 7.4; type: physicochemical; settings: buffer
CAL-27 [11] = assay: cells; settings: Homo sapiens, CAL-27, 72 h
A2780cisR = assay: cells; settings: Homo sapiens
[12] = target: Collagenase 3 (Homo sapiens) (UniProt P45452); assay: Inhibition of MMP13 (unknown origin) at 10 uM relative to control
[13] = target: Stromelysin-1 (Homo sapiens) (UniProt P08254); assay: Inhibition of MMP3 (unknown origin) at 10 uM relative to control
CAL-27 [14] = assay: Anti-apoptotic activity in human CAL-27 cells assessed as increase in BCL-2 expression at 0.5 uM incubated for 48 hrs in presence of cisplatin by Western blot analysis; type: functional, cell-based
HL-60 = assay: cells; settings: Homo sapiens, HL-60, 72 h
CAL-27 [15] = assay: Induction of DNA damage in human CAL-27 cells assessed as gamma-H2AX accumulation at 0.5 uM by Western blot analysis; type: functional, cell-based
[16] = target: 72 kDa type IV collagenase (Homo sapiens) (UniProt P08253); assay: Inhibition of MMP2 (unknown origin) at 10 uM relative to control
[17] = Metabolic stability in human liver microsome assessed as half life; type: ADME, microsomes; settings: microsomes
Cal27CisR [18] = assay: Induction of DNA damage in human Cal27CisR cells assessed as gamma-H2AX accumulation at 0.5 uM in presence of cisplatin by Western blot analysis; type: functional, cell-based
[19] = target: Matrix metalloproteinase-9 (Homo sapiens) (UniProt P14780); assay: Inhibition of MMP9 (unknown origin) at 10 uM relative to control
CAL-27 [20] = assay: Induction of apoptosis in human CAL-27 cells assessed as increase in BIM expression at 0.5 uM incubated for 48 hrs in presence of cisplatin by Western blot analysis; type: functional, cell-based
CAL-27 [21] = assay: Anti-apoptotic activity in human CAL-27 cells assessed as increase in survivin expression at 0.5 uM incubated for 48 hrs in presence of cisplatin by Western blot analysis; type: functional, cell-based
Cal27CisR [22] = assay: Induction of DNA damage in human Cal27CisR cells assessed as gamma-H2AX accumulation at 0.5 uM by Western blot analysis; type: functional, cell-based
CAL-27 [23] = assay: Induction of apoptosis in human CAL-27 cells assessed as increase in BIM expression at 0.5 uM incubated for 48 hrs by Western blot analysis; type: functional, cell-based
A2780 [24] = assay: Induction of cell cycle arrest in human A2780 cells assessed as increase in accumulation of cells at subG1 phase; type: functional, cell-based
cells [25] = settings: Homo sapiens, Cal27CisR

Sequence of Matrix metalloproteinase-9 (Homo sapiens) (P14780 whole entry): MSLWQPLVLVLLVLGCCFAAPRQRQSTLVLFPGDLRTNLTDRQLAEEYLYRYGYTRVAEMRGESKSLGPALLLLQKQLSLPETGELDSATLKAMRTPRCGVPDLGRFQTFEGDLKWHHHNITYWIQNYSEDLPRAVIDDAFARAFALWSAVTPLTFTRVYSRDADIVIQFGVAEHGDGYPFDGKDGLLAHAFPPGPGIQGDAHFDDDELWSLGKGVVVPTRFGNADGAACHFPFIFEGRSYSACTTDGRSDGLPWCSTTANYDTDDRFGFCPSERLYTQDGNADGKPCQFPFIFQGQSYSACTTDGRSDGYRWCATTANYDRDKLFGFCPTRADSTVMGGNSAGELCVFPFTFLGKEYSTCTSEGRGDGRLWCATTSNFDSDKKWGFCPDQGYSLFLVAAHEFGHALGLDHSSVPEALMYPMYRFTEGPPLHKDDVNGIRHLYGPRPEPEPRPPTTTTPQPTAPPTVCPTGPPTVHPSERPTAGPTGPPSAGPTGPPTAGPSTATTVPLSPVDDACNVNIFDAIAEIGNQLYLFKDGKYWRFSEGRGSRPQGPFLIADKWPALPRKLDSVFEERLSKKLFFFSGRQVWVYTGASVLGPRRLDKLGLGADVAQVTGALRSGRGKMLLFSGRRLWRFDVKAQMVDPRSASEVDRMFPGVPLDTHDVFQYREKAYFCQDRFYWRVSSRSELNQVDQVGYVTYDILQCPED
Sequence of 72 kDa type IV collagenase (Homo sapiens) (P08253 110-660 limits assumed): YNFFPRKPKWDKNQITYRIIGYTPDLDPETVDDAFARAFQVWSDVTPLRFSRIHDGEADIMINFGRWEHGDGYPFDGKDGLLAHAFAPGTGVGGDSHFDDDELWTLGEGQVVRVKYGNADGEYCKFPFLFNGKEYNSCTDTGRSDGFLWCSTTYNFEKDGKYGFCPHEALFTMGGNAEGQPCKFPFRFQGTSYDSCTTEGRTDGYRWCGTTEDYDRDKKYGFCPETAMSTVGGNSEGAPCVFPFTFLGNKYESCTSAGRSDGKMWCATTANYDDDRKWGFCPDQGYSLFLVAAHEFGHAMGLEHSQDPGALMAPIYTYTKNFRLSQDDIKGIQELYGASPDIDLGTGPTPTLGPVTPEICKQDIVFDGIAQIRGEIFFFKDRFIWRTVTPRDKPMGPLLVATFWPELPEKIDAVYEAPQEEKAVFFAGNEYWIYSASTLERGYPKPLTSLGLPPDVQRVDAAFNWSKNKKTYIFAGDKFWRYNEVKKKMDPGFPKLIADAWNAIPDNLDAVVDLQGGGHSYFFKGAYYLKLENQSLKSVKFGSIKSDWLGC
Sequence of Stromelysin-1 (Homo sapiens) (P08254 100-477 limits assumed): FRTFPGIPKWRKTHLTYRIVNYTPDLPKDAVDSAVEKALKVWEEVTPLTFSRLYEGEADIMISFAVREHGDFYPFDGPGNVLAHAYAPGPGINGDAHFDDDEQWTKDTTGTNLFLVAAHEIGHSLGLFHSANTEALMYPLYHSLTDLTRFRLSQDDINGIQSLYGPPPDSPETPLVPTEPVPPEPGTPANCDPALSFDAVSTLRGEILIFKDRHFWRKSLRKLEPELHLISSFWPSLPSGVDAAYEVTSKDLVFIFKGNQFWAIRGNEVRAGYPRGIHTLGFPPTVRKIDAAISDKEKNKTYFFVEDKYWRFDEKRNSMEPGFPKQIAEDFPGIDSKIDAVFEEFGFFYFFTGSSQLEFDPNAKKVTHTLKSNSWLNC
Sequence of Glutaminyl-peptide cyclotransferase (Homo sapiens) (Q16769 29-361 limits assumed): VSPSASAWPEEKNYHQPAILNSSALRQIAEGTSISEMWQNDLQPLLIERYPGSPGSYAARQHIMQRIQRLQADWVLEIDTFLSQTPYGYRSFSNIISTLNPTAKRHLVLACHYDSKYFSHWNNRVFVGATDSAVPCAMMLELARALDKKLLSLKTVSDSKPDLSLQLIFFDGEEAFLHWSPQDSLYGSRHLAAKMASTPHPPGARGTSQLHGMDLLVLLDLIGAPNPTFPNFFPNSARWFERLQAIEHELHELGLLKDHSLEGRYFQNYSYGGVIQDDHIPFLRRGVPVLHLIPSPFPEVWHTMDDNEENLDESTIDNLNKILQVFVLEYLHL

IC50 (cells [2]): 2.23 µM | IC50 (A2780 [3]): 3.5 µM | CLH [4]: 40.9 µL/min/mg | inhibition [7]: inactive | inhibition [9]: inactive | logD [10]: 2.69 | IC50 (CAL-27 [11]): 1.47 µM | IC50 (A2780cisR): 16 µM | inhibition [12]: inactive | inhibition [13]: inactive | IC50 (HL-60): 0.969 µM | inhibition [16]: inactive | t1/2 [17]: 33.93 min | inhibition [19]: inactive | IC50 (cells [25]): 16.5 µM
Compound: CCNNC(=O)c1ccc(CN(CC(=O)NCc2ccccc2)C(=O)c2ccc(N(C)C)cc2)cc1
Activity (CAL-27 [1]): Active | Activity (A2780 [5]): Active | Activity (CAL-27 [6]): Active | Activity (CAL-27 [8]): Active | Activity (CAL-27 [14]): Active | Activity (CAL-27 [15]): Active | Activity (Cal27CisR [18]): Active | Activity (CAL-27 [20]): Active | Activity (CAL-27 [21]): Active | Activity (Cal27CisR [22]): Active | Activity (CAL-27 [23]): Active | Activity (A2780 [24]): Active
